Measurements as given in patent publication US20250296971A1, “GASTRIC INHIBITORY PEPTIDE RECEPTOR LIGANDS” (priority 2021, published 2025).
Read-outs that look alike come from different tables or passages of the source. *1 amine or outer side, *2 acyl side, *3 side chain or, on linkers, in order; H or OH if unused. Where a SMILES comes first, the peptide text is derived from it. Bridges are numbered along the chain shown (N, C = ends). Side-chain parts run from the residue outwards. [ ]: non-standard residue; d: D form. The star is where a group is joined. NH(1-deoxy-D-glucityl) = OC[C@@H](O)[C@@H](O)[C@H](O)[C@@H](O)CN*; DOTA = O=C(O)CN1CCN(CC(=O)O)CCN(CC(=O)*)CCN(CC(=O)O)CC1; Trp(5-Br) = N[C@@H](Cc1c[nH]c2ccc(Br)cc12)C(=O)O; Trp(5-Cl) = N[C@@H](Cc1c[nH]c2ccc(Cl)cc12)C(=O)O; Pyridine(2,6-diCH2) = c1cc(C[*:1])nc(C[*:2])c1; Pro(4R-NH2) = N[C@H]1CN[C@H](C(=O)O)C1; Glutaryl = O=C(CCCC(=O)[*:2])[*:1]; X1 = O=C(CN1CCC(N[*:1])CC1)[*:2]; hSer = N[C@@H](CCO)C(=O)O; Api = NC1(C(=O)O)CCNCC1; AEEA = NCCOCCOCC(=O)O

Molecular target: T1, GIPR (CHO-K1-hGIPR cells) (Homo sapiens, UniProt P48546)
T1 construct: host or cells: CHO-K1
T1 sequence (P48546 22-466): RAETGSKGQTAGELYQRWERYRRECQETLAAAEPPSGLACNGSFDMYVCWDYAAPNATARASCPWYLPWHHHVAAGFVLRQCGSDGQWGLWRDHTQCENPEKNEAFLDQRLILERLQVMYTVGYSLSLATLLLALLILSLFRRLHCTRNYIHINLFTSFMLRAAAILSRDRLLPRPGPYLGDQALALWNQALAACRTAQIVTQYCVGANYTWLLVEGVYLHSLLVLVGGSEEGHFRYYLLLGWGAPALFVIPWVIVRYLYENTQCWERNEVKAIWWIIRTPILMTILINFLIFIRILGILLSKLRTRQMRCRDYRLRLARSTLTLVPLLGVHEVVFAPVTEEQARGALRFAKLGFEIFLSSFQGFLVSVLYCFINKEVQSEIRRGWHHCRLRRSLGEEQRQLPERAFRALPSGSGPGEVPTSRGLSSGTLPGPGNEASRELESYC
Assay: FACS binding assay
Settings: competition with 20 nM GIP-057, 4° C., 1 hour
Description: In order to determine binding of compounds according to the present invention to GIPR-expressing cells, a FACS binding assay was established.
CHO-K1-hGIPR cells (GenScript Biotech, #M00486) were cultured in Ham's F12 medium (Sigma-Aldrich, #N4888) including 10% fetal calf serum (FCS), 2 mM L-glutamine, 100 U/mL penicillin, 100 μg/mL streptomycin, 200 μg/mL Zeocin and 100 μg/mL HygromycinB. Cells were detached with Accutase (Biolegend, #BLD-423201) and washed in FACS buffer (PBS including 1% FCS). Cells were diluted in FACS buffer to a final concentration of 500.000 cells per mL. 200 μL of the cell suspension were transferred to a u-shaped non-binding 96-well plate (Greiner) and cells were washed in ice-cold FACS buffer.
Cells were washed twice in FACS buffer. An additional incubation step with 1 μg/mL APC-Streptavidin (Miltenyi; #130-106-791) in 50 μL FACS buffer for 30 min on ice was performed followed by two washes with FACS buffer.
Cells were analyzed in an Attune NxT flow cytometer. Median fluorescence intensities (MFI) of the APC/Cy5-channel were calculated by Attune NxT software. MFI values were plotted against peptide concentration and four parameter logistic (4PL) curve fitting and EC50/pEC50 or IC50/pIC50 calculations were performed using ActivityBase software.

[1] = read-out: pIC50 Category (converted)

SMILES | IC50 [1] | IC50 (pIC50 Category)
CC[C@H](C)[C@@H]1NC(=O)[C@H](CC(C)C)NC(=O)C2(CCN(C(=O)CCCC(=O)NC[C@H](O)[C@@H](O)[C@H](O)[C@H](O)CO)CC2)NC(=O)[C@@H](NC(=O)[C@@H](CC(C)C)NC(=O)[C@H](CCC(=O)O)NC(=O)[C@@H]2C[C@@H](N)CN2C(=O)[C@H](Cc2c[nH]c3ccc(Cl)cc23)NC(=O)[C@H](Cc2c[nH]c3ccccc23)NC(=O)[C@H](CC(=O)O)NC(=O)COCCOCCNC(=O)[C@@H](CCC(=O)NC[C@H](O)[C@@H](O)[C@H](O)[C@H](O)CO)NC(=O)CN2CCN(CC(=O)O)CCN(CC(=O)O)CCN(CC(=O)O)CC2)CSCc2cccc(n2)CSC[C@@H](C(=O)NC2CCN(CC(=O)N[C@H](CCC(=O)NC[C@H](O)[C@@H](O)[C@H](O)[C@H](O)CO)C(N)=O)CC2)NC1=O [GIP-009, DOTA-glu(AGLU)-O2Oc-Asp-Trp-5Clw-Tap-Glu-leu-[Cys(2Lut)-Apc(AGLU-Glutar)-Leu-Ile-Cys]-APAc-glu(AGLU)-NH2] ({DOTA}-[dE](NH(1-deoxy-D-glucityl))[AEEA]DW[Trp(5-Cl)][Pro(4R-NH2)]E[dL]C[Api]([Glutaryl-NH(1-deoxy-D-glucityl)])LIC[X1][dE](NH(1-deoxy-D-glucityl))-NH2; linker 9-13 via Pyridine(2,6-diCH2)) | < 0.01 µM | –
CC[C@H](C)[C@@H]1NC(=O)[C@H](CC(C)C)NC(=O)C2(CCN(C(=O)CCCC(=O)NC[C@H](O)[C@@H](O)[C@H](O)[C@H](O)CO)CC2)NC(=O)[C@@H](NC(=O)[C@@H](CC(C)C)NC(=O)[C@H](CCC(=O)O)NC(=O)[C@@H]2C[C@@H](N)CN2C(=O)[C@H](Cc2c[nH]c3ccc(Cl)cc23)NC(=O)[C@H](Cc2c[nH]c3ccccc23)NC(=O)[C@H](CC(=O)O)NC(=O)CN2CCC(NC(=O)CN3CCN(CC(=O)O)CCN(CC(=O)O)CCN(CC(=O)O)CC3)CC2)CSCc2cccc(n2)CSC[C@@H](C(=O)NC2CCN(CC(=O)N[C@H](CCC(=O)NC[C@H](O)[C@@H](O)[C@H](O)[C@H](O)CO)C(N)=O)CC2)NC1=O [GIP-012, DOTA-APAc-Asp-Trp-5Clw-Hyp-Glu-leu-[Cys(2Lut)-Apc(AGLU-Glutar)-Leu-Ile-Cys]-APAc-glu(AGLU)-NH2] ({DOTA}-[X1]DW[Trp(5-Cl)][Pro(4R-NH2)]E[dL]C[Api]([Glutaryl-NH(1-deoxy-D-glucityl)])LIC[X1][dE](NH(1-deoxy-D-glucityl))-NH2; linker 8-12 via Pyridine(2,6-diCH2)) | < 0.01 µM | –
CC[C@H](C)[C@@H]1NC(=O)[C@H](CC(C)C)NC(=O)C2(CCN(C(=O)CN3CCN(CC(=O)O)CCN(CC(=O)O)CCN(CC(=O)O)CC3)CC2)NC(=O)[C@@H](NC(=O)[C@@H](CC(C)C)NC(=O)[C@H](CCC(=O)O)NC(=O)[C@@H]2C[C@@H](N)CN2C(=O)[C@H](Cc2c[nH]c3ccc(Cl)cc23)NC(=O)[C@H](Cc2c[nH]c3ccccc23)NC(=O)[C@H](CC(=O)O)NC(=O)CN2CCC(NC(=O)CCCC(=O)NC[C@H](O)[C@@H](O)[C@H](O)[C@H](O)CO)CC2)CSCc2cccc(n2)CSC[C@@H](C(=O)NC2CCN(CC(=O)N[C@H](CCC(=O)NC[C@H](O)[C@@H](O)[C@H](O)[C@H](O)CO)C(N)=O)CC2)NC1=O [GIP-013, AGLU-Glutar-APAc-Asp-Trp-5Clw-Tap-Glu-leu-[Cys(2Lut)-Apc(DOTA)-Leu-Ile-Cys]-APAc-glu(AGLU)-NH2] ({NH(1-deoxy-D-glucityl)-Glutaryl}-[X1]DW[Trp(5-Cl)][Pro(4R-NH2)]E[dL]C[Api](DOTA)LIC[X1][dE](NH(1-deoxy-D-glucityl))-NH2; linker 8-12 via Pyridine(2,6-diCH2)) | < 0.01 µM | –
CC[C@H](C)[C@@H]1NC(=O)[C@H](CC(C)C)NC(=O)C2(CCN(C(=O)CN3CCN(CC(=O)O)CCN(CC(=O)O)CCN(CC(=O)O)CC3)CC2)NC(=O)[C@@H](NC(=O)[C@@H](CC(C)C)NC(=O)[C@H](CCC(=O)O)NC(=O)[C@@H]2C[C@@H](N)CN2C(=O)[C@H](Cc2c[nH]c3ccc(Br)cc23)NC(=O)[C@H](Cc2c[nH]c3ccccc23)NC(=O)[C@H](CC(=O)O)NC(=O)CN2CCC(NC(=O)CCCC(=O)NC[C@H](O)[C@@H](O)[C@H](O)[C@H](O)CO)CC2)CSCc2cccc(n2)CSC[C@@H](C(=O)NC2CCN(CC(=O)N[C@H](CCC(=O)NC[C@H](O)[C@@H](O)[C@H](O)[C@H](O)CO)C(N)=O)CC2)NC1=O [GIP-014, AGLU-Glutar-APAc-Asp-Trp-5Brw-Tap-Glu-leu-[Cys(2Lut)-Apc(DOTA)-Leu-Ile-Cys]-APAc-glu(AGLU)-NH2] ({NH(1-deoxy-D-glucityl)-Glutaryl}-[X1]DW[Trp(5-Br)][Pro(4R-NH2)]E[dL]C[Api](DOTA)LIC[X1][dE](NH(1-deoxy-D-glucityl))-NH2; linker 8-12 via Pyridine(2,6-diCH2)) | – | < 0.01 µM
CC[C@H](C)[C@@H]1NC(=O)[C@H](CC(C)C)NC(=O)C2(CCN(C(=O)CN3CCN(CC(=O)O)CCN(CC(=O)O)CCN(CC(=O)O)CC3)CC2)NC(=O)[C@@H](NC(=O)[C@@H](CC(C)C)NC(=O)[C@H](CCC(=O)O)NC(=O)[C@@H]2C[C@@H](N)CN2C(=O)[C@H](Cc2c[nH]c3ccc(Br)cc23)NC(=O)[C@H](Cc2c[nH]c3ccccc23)NC(=O)[C@H](CC(=O)O)NC(=O)CCCC(=O)NC[C@H](O)[C@@H](O)[C@H](O)[C@H](O)CO)CSCc2cccc(n2)CSC[C@@H](C(=O)NC2CCN(CC(=O)N[C@H](CCC(=O)NC[C@H](O)[C@@H](O)[C@H](O)[C@H](O)CO)C(N)=O)CC2)NC1=O [GIP-015, AGLU-Glutar-Asp-Trp-5Brw-Tap-Glu-leu-[Cys(2Lut)-Apc(DOTA)-Leu-Ile-Cys]-APAc-glu(AGLU)-NH2] ({NH(1-deoxy-D-glucityl)-Glutaryl}-DW[Trp(5-Br)][Pro(4R-NH2)]E[dL]C[Api](DOTA)LIC[X1][dE](NH(1-deoxy-D-glucityl))-NH2; linker 7-11 via Pyridine(2,6-diCH2)) | < 0.01 µM | –
CC[C@H](C)[C@@H]1NC(=O)[C@H](CC(C)C)NC(=O)C2(CCN(C(=O)CN3CCN(CC(=O)O)CCN(CC(=O)O)CCN(CC(=O)O)CC3)CC2)NC(=O)[C@@H](NC(=O)[C@@H](CC(C)C)NC(=O)[C@H](CCC(=O)O)NC(=O)[C@@H]2C[C@@H](N)CN2C(=O)[C@H](Cc2c[nH]c3ccc(Br)cc23)NC(=O)[C@H](Cc2c[nH]c3ccccc23)NC(=O)[C@H](CCO)NC(=O)CCCC(=O)NC[C@H](O)[C@@H](O)[C@H](O)[C@H](O)CO)CSCc2cccc(n2)CSC[C@@H](C(=O)NC2CCN(CC(=O)N[C@H](CCC(=O)NC[C@H](O)[C@@H](O)[C@H](O)[C@H](O)CO)C(N)=O)CC2)NC1=O [GIP-016, AGLU-Glutar-Hse-Trp-5Brw-Tap-Glu-leu-[Cys(2Lut)-Apc(DOTA)-Leu-Ile-Cys]-APAc-glu(AGLU)-NH2] ({NH(1-deoxy-D-glucityl)-Glutaryl}-[hSer]W[Trp(5-Br)][Pro(4R-NH2)]E[dL]C[Api](DOTA)LIC[X1][dE](NH(1-deoxy-D-glucityl))-NH2; linker 7-11 via Pyridine(2,6-diCH2)) | < 0.01 µM | –
